According to ChEMBL document CHEMBL1201862, “PubChem BioAssay data set” (2004):
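All cell lines were grown in 96-well plates and treated with compound for 48 hours. The concentration for 50% growth inhibition is given as GI50.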 Calls of active or inactive are those of the source. Rule as the data show it: active = GI50 up to about 1.1 µM and inactive = higher.

Assays:
Assay in all cases: growth of human tumour cells (NCI), 48 h
[1] = test system: BT-549
[2] = test system: DU-145
[3] = test system: EKVX
[4] = test system: HCT-116
[5] = test system: HOP-92
[6] = test system: IGROV-1
[7] = test system: M14
[8] = test system: MOLT-4
[9] = test system: NCI-H460
[10] = test system: NCI/ADR-RES
[11] = test system: OVCAR-3
[12] = test system: OVCAR-4
[13] = test system: OVCAR-8
[14] = test system: RXF 393
[15] = test system: SF-295
[16] = test system: SK-MEL-5
[17] = test system: SNB-19
[18] = test system: U-251
[19] = test system: UACC-62
[20] = test system: UO-31

Measured: GI50

CCOC(=O)C(=C(SC)SC)c1nn2c(=O)cc(C)nc2s1
inactive: [1] 18.2 µM | [2] 16.5 µM | [3] 24.3 µM | [4] 16.4 µM | [5] 16.9 µM | [6] 20.9 µM | [7] 15.9 µM | [8] 17.7 µM | [9] 24 µM | [10] 36.5 µM | [11] 18.7 µM | [12] 28.5 µM | [13] 23.8 µM | [14] 22.6 µM | [15] 71.8 µM | [16] 22 µM | [17] 27.2 µM | [18] 23.6 µM | [19] 21 µM | [20] 19.5 µM

CCCCC1Nc2ccccc2-c2ccnc(Cl)c21 (stereo not drawn)
inactive: [1] 18 µM | [2] 20.5 µM | [3] 24.2 µM | [4] 15.7 µM | [5] 14.2 µM | [6] 19 µM | [7] 19.1 µM | [8] 17.8 µM | [9] 32.1 µM | [10] 27.7 µM | [11] 11.1 µM | [12] 20.1 µM | [14] 18.5 µM | [15] 21.5 µM | [16] 15.2 µM | [17] 24.1 µM | [18] 21.4 µM | [19] 13.7 µM | [20] 20 µM

CC1(/C=C/CCSc2ccccc2)CC(=O)C2CC1C2(C)C (stereo not drawn)
inactive: [1] 9.18 µM | [2] 44.3 µM | [3] 22.1 µM | [4] 13 µM | [5] 17.9 µM | [6] 17.8 µM | [7] 23.8 µM | [8] 4.67 µM | [9] 17.3 µM | [10] 11 µM | [11] 23.1 µM | [12] 38.5 µM | [13] 22.3 µM | [14] 29.3 µM | [15] 21 µM | [16] 8.71 µM | [17] 35.8 µM | [18] 14.9 µM | [19] 8.04 µM | [20] 5.61 µM

Cn1c2ccccc2c(=O)c2c(O)cc3c(c21)C=CC1(CCCCC1)O3
inactive: [1] 2.08 µM | [2] > 10 µM | [3] 8.41 µM | [4] > 10 µM | [5] > 10 µM | [6] > 10 µM | [7] > 10 µM | [8] > 10 µM | [9] > 10 µM | [10] > 10 µM | [11] > 10 µM | [12] > 10 µM | [13] > 10 µM | [14] > 10 µM | [15] > 10 µM | [16] > 10 µM | [17] > 10 µM | [18] > 10 µM | [19] > 10 µM | [20] > 10 µM

Cc1c(N2C(=O)C(Cl)C2/C=C/c2ccccc2)c(=O)n(-c2ccccc2)n1C (stereo not drawn)
inactive: [1] 33.4 µM | [2] 34.6 µM | [3] 6.41 µM | [4] 16.9 µM | [5] 14.1 µM | [6] 17.1 µM | [7] 17.2 µM | [8] 13.4 µM | [9] 26.7 µM | [10] > 100 µM | [11] 20.8 µM | [12] 29.5 µM | [13] 22.1 µM | [14] 26.9 µM | [15] 22.1 µM | [16] 15.8 µM | [18] 6.22 µM | [19] 14.9 µM | [20] 28.1 µM

C=C1C(=O)O[C@@H]2/C=C(\C)CC/C=C(/COC(C)=O)C[C@@H](OC(C)=O)[C@@H]12
inactive: [1] 3.91 µM | [2] 6.79 µM | [3] 11.1 µM | [4] 3.85 µM | [5] 7.73 µM | [6] 13.4 µM | [7] 12.6 µM | [8] 3.45 µM | [9] 12.1 µM | [10] 17.9 µM | [11] 4.49 µM | [12] 20.2 µM | [13] 14.1 µM | [14] 9.38 µM | [15] 53.7 µM | [16] 11.6 µM | [17] 29.2 µM | [18] 18.7 µM | [19] 12.4 µM | [20] 8.87 µM

COC1Cc2c(C)c(OC(C)=O)c3cccnc3c2O1 (stereo not drawn)
inactive: [1] 19.7 µM | [2] 17.3 µM | [3] 15.4 µM | [4] 34.9 µM | [5] 18.6 µM | [6] 13.3 µM | [7] 14.5 µM | [8] 13.8 µM | [9] 25.4 µM | [10] 17.6 µM | [11] 14.5 µM | [12] 16 µM | [13] 15.1 µM | [14] 14.9 µM | [15] 32.4 µM | [16] 15.3 µM | [17] > 100 µM | [18] 37.2 µM | [19] 14.7 µM | [20] 13.9 µM
